The results in this text go back to paper PMC4979481, “Functional characterization of the ectopically expressed olfactory receptor 2AT4 in human myelogenous leukemia” (Cell Death Discovery, 2016).

This assay addresses T1, OR2AT4 (olfactory receptor 2AT4) (Homo sapiens, UniProt A6NND4).
T1 sequence (A6NND4 1-320): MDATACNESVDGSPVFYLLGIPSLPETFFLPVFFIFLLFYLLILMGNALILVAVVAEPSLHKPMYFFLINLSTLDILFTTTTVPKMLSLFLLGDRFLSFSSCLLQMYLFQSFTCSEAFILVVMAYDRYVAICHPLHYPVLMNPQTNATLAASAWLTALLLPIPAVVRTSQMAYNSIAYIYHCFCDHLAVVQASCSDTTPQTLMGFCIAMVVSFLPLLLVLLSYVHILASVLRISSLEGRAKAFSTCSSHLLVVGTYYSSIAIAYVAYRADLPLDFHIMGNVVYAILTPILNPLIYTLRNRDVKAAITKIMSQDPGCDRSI
Description: calcium imaging dose-response in K562 cells (endogenous receptor), blocked by antagonist Phenirat. Format: cell-based.

The term EC50 denotes the concentration that produces a half-maximal response.

Structures are written as SMILES.

With `CC1=CCC(CCC(C)C(C)O)C1(C)C` (stereo not shown) [Sandalore], the EC50 was determined as 265 µM.
